Columns and labels:
Iris pseudocarus = assay: survival of plants in the presence of 2,4-D; format: in vivo; settings: 5 mg/l 2,4-D
plant = settings: cited from earlier work
yellow lupine = assay: plant growth with toluene during hydroponic cultivation; settings: non-inoculated plants
Lupinus luteus = assay: toxicity test: toluene on growth of Lupinus luteus; settings: hydroponic, 0-3000 mg per liter tested, all other exposed plants dead
Pseudomonas sp. VM422 = assay: zinc resistance phenotype, MIC on Tris minimal medium; format: cell-based; settings: strain VM422

## O=C(O)COc1ccc(Cl)cc1Cl [2,4-D, 2,4-dichlorophenoxyacetic acid]
Iris pseudocarus
  Dead plants, Non-inoculated plants + 2,4-D: 75%
  Healthy plants, Non-inoculated plants + 2,4-D: 25%

## ClC(Cl)=C(Cl)Cl [PER]
plant
  Fate in plant (toxic, build up, or volatile): Volatile

## ClC=C(Cl)Cl [TCE, tri-chloro-ethylene]
plant
  Fate in plant (toxic, build up, or volatile): Volatile, Build-up

## Cc1ccccc1 [toluene]
Yellow lupine
  toluene dose at which non-inoculated controls showed growth reduction: 100 mg/L
Lupinus luteus
  toluene concentration at which the exposed plant was not dead at the end of the third week: 100 mg per liter

## [Zn] [zinc]
Pseudomonas sp. VM422
  MIC value for zinc: 20 mM

Source: patent publication US20070101461A1, “Method for Improving Phytoremediation Treatment of a Contaminated Medium” (priority 2001, published 2007)
